Results as given in US12479827B2, “Heteroaromatic carboxamide derivatives as plasma kallikrein inhibitors” (Boehringer Ingelheim International GmbH, priority 2020, dated 2025).

How the values were obtained:
Human PKK = target: T1, Human PKK (Homo sapiens, UniProt P03952); test: Inhibition of PKK using an endpoint assay (human PKK); type: biochemical; conditions: fluorogenic substrate H-Pro-Phe-Arg-AMC, 1 h room temperature, method names human or rat PKK, table does not say which
T1 construct: purchased Enzyme Research Laboratories
T1 sequence (P03952 20-390 limits assumed): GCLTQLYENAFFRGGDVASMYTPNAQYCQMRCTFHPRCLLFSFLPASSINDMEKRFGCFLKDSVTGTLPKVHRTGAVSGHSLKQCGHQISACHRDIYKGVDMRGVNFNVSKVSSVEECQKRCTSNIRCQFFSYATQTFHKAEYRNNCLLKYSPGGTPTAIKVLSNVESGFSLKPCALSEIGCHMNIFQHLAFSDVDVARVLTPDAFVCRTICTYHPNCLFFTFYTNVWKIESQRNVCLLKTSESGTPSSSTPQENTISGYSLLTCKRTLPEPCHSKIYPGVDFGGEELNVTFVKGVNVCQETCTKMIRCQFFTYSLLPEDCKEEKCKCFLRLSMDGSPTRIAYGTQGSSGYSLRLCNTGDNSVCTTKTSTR
T1 sequence (P03952 391-638 limits assumed): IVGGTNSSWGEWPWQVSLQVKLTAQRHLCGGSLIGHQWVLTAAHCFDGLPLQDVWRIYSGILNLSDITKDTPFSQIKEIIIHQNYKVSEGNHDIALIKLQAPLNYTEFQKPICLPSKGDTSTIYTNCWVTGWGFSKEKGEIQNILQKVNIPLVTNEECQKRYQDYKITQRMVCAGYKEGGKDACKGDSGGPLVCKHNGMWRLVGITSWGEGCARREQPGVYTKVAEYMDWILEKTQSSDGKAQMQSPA
Procedure, shortened: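 Human PKK inhibition measured in 100 mM Tris, 150 mM NaCl, pH 7.8, 0.1% BSA, 0.05% Tween20, 1% DMSO. Endpoint format: reaction stopped with PPACK II at 1 μM final, fluorescence read at 355 nm excitation/460 nm emission.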

[1] = target: T2, PKK in kaolin activated human platelet poor plasma (Homo sapiens, UniProt P03952); test: Inhibition of PKK in kaolin activated human PPP; type: biochemical; conditions: 25-750 μg/mL kaolin, global fit, text b200 calls the values IC90;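 note: readout is the rate of fluorogenic substrate cleavage in rfu per min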
T2 construct: Platelet poor plasma (PPP) obtained from human wholeblood; from tissue
T2 sequence (P03952 391-638 limits assumed): as above
T2 sequence (P03952 20-390 limits assumed): as the sequence (P03952 20-390 limits assumed) above
Procedure: Platelet poor plasma (PPP) obtained from human wholeblood, anticoagulated with Na-Citrate, is incubated with various concentrations of the test compound together with either 25, 75, 250, or 750 μg/mL kaolin in assay buffer for 20 min at 37° C. such that for each kaolin dose used a concentration response is obtained for the test compound.

SMILES	IC50 (Human PKK) [nM]	IC50 [1] [nM]
CCc1nc(N2CC3C(C2)C3(F)F)ccc1Cc1cc(C(=O)N[C@@H]2CCc3c2ncn3C)n(CC)n1 (stereo partly drawn) [Example 161, 3-[(6-{6,6-Difluoro-3-azabicyclo[3.1.0]hexan-3-yl}-2-ethylpyridin-3-yl)methyl]-1-ethyl-N-[(4R)-1-methyl-1H,4H,5H,6H-cyclopenta[d]imidazol-4-yl]-1H-pyrazole-5-carboxamide]	1.5	431
CCc1nc(N2CC3CC3C2)ccc1Cc1cc(C(=O)N[C@@H]2CCc3c2ncn3C)n(CC)n1 (stereo partly drawn) [Example 162, 3-[(6-{3-Azabicyclo[3.1.0]hexan-3-yl}-2-ethylpyridin-3-yl)methyl]-1-ethyl-N-[(4R)-1-methyl-1H,4H,5H,6H-cyclopenta[d]imidazol-4-yl]-1H-pyrazole-5-carboxamide]	1.1	231
CCn1nc(Cc2ccc(N3CC4CC4C3)nc2C)cc1C(=O)N[C@@H]1CCc2c1ncn2C (stereo partly drawn) [Example 164, 3-[(6-{3-Azabicyclo[3.1.0]hexan-3-yl}-2-methylpyridin-3-yl)methyl]-1-ethyl-N-[(4R)-1-methyl-1H,4H,5H,6H-cyclopenta[d]imidazol-4-yl]-1H-pyrazole-5-carboxamide]	1.8	443
CCc1nc(N2CC3CC3C2)ccc1Cc1cc(C(=O)N[C@@H]2CCc3c2ncn3C)[nH]n1 (stereo partly drawn) [Example 165, 3-[(6-{3-Azabicyclo[3.1.0]hexan-3-yl}-2-ethylpyridin-3-yl)methyl]-N-[(4R)-1-methyl-1H,4H,5H,6H-cyclopenta[d]imidazol-4-yl]-1H-pyrazole-5-carboxamide]	0.8	342
CCc1nc(N2CC3CC3C2)ccc1Cc1cc(C(=O)N[C@@H]2CCc3c2ncn3C)n(C)n1 (stereo partly drawn) [Example 166, 3-[(6-{3-Azabicyclo[3.1.0]hexan-3-yl}-2-ethylpyridin-3-yl)methyl]-1-methyl-N-[(4R)-1-methyl-1H,4H,5H,6H-cyclopenta[d]imidazol-4-yl]-1H-pyrazole-5-carboxamide]	1	193
Cc1nc(N2CC3CC3C2)ccc1Cc1cc(C(=O)N[C@@H]2CCc3c2ncn3C)n(C)n1 (stereo partly drawn) [Example 168, 3-[(6-{3-Azabicyclo[3.1.0]hexan-3-yl}-2-methylpyridin-3-yl)methyl]-1-methyl-N-[(4R)-1-methyl-1H,4H,5H,6H-cyclopenta[d]imidazol-4-yl]-1H-pyrazole-5-carboxamide]	1.5	1860
Cc1nc(N2CC3CC3C2)ncc1Cn1cc(C(=O)N[C@@H]2CCc3c2ncn3C)c2cncnc21 (stereo partly drawn) [Example 174, 7-[(2-{3-Azabicyclo[3.1.0]hexan-3-yl}-4-methylpyrimidin-5-yl)methyl]-N-[(4R)-1-methyl-1H,4H,5H,6H-cyclopenta[d]imidazol-4-yl]-7H-pyrrolo[2,3-d]pyrimidine-5-carboxamide]	1.9	1430
CCOCc1nc(N2CC3C(C2)C3(F)F)ccc1Cn1cc(C(=O)N[C@@H]2CCc3c2ncn3C)cn1 (stereo partly drawn) [Example 179, 1-[(6-{6,6-Difluoro-3-azabicyclo[3.1.0]hexan-3-yl}-2-(ethoxymethyl)pyridin-3-yl)methyl]-N-[(4R)-1-methyl-1H,4H,5H,6H-cyclopenta[d]imidazol-4-yl]-1H-pyrazole-4-carboxamide]	4.2	389
COCc1nc(N2CC3CC3C2)ccc1Cn1cnc(C(=O)N[C@@H]2CCc3c2ncn3C)c1 (stereo partly drawn) [Example 180, 1-[(6-{3-Azabicyclo[3.1.0]hexan-3-yl}-2-(methoxymethyl)pyridin-3-yl)methyl]-N-[(4R)-1-methyl-1H,4H,5H,6H-cyclopenta[d]imidazol-4-yl]-1H-imidazole-4-carboxamide]	2.6	207
Cc1nc(N2CC3CC3C2)ccc1Cc1cc(C(=O)N[C@@H]2CCc3c2ncn3C)co1 (stereo partly drawn) [Example 182, 5-[(6-{3-Azabicyclo[3.1.0]hexan-3-yl}-2-methylpyridin-3-yl)methyl]-N-[(4R)-1-methyl-1H,4H,5H,6H-cyclopenta[d]imidazol-4-yl]furan-3-carboxamide]	7.1	6270
Cc1cc(N2CC3C(C2)C3(F)F)ccc1Cn1cc(C(=O)N[C@@H]2CCc3c2ncn3C)cn1 (stereo partly drawn) [Example 199, 1-[(4-{6,6-difluoro-3-azabicyclo[3.1.0]hexan-3-yl}-2-methylphenyl)methyl]-N-[(4R)-1-methyl-1H,4H,5H,6H-cyclopenta[d]imidazol-4-yl]-1H-pyrazole-4-carboxamide]	3.1	808

The remaining lines, values ahead:

IC50 (Human PKK) [nM]	IC50 [1] [nM]	SMILES
2.2	470	CCn1nc(Cc2ccc(N3CC4C(C3)C4(F)F)nc2C)cc1C(=O)N[C@@H]1CCc2c1ncn2C (stereo partly drawn) [Example 163, 3-[(6-{6,6-Difluoro-3-azabicyclo[3.1.0]hexan-3-yl}-2-methylpyridin-3-yl)methyl]-1-ethyl-N-[(4R)-1-methyl-1H,4H,5H,6H-cyclopenta[d]imidazol-4-yl]-1H-pyrazole-5-carboxamide]
1.3	272	Cc1nc(N2CC3C(C2)C3(F)F)ccc1Cc1cc(C(=O)N[C@@H]2CCc3c2ncn3C)n(C)n1 (stereo partly drawn) [Example 167, 3-[(6-{6,6-Difluoro-3-azabicyclo[3.1.0]hexan-3-yl}-2-methylpyridin-3-yl)methyl]-1-methyl-N-[(4R)-1-methyl-1H,4H,5H,6H-cyclopenta-[d]imidazol-4-yl]-1H-pyrazole-5-carboxamide]
13.5	2310	CCc1nc(N2CC3C(C2)C3(F)F)ccc1Cc1ccc(C(=O)N[C@@H]2CCc3c2ncn3C)s1 (stereo partly drawn) [Example 184, 5-[(6-{6,6-Difluoro-3-azabicyclo[3.1.0]hexan-3-yl}-2-ethylpyridin-3-yl)methyl]-N-[(4R)-1-methyl-1H,4H,5H,6H-cyclopenta[d]imidazol-4-yl]thiophene-2-carboxamide]
10.9	2270	Cn1cnc2c1CC[C@H]2NC(=O)c1ccc(Cc2ccc(N3CC4C(C3)C4(F)F)nc2CO)s1 (stereo partly drawn) [Example 185, 5-[(6-{6,6-Difluoro-3-azabicyclo[3.1.0]hexan-3-yl}-2-(hydroxymethyl)pyridin-3-yl)methyl]-N-[(4R)-1-methyl-1H,4H,5H,6H-cyclopenta-[d]imidazol-4-yl]thiophene-2-carboxamide]
10.9	236	CCc1nc(N2CC3C(C2)C3(F)F)ccc1Cc1ccc(C(=O)N[C@@H]2CCc3c2ncn3C)o1 (stereo partly drawn) [Example 186, 5-[(6-{6,6-difluoro-3-azabicyclo[3.1.0]hexan-3-yl}-2-ethylpyridin-3-yl)methyl]-N-[(4R)-1-methyl-1H,4H,5H,6H-cyclopenta[d]imidazol-4-yl]furan-2-carboxamide]
12.2	2450	Cc1nc(N2CC3C(C2)C3(F)F)ccc1Cc1ccc(C(=O)N[C@@H]2CCc3c2ncn3C)s1 (stereo partly drawn) [Example 187, 5-[(6-{6,6-Difluoro-3-azabicyclo[3.1.0]hexan-3-yl}-2-methylpyridin-3-yl)methyl]-N-[(4R)-1-methyl-1H,4H,5H,6H-cyclopenta[d]imidazol-4-yl]thiophene-2-carboxamide]
19.8	1500	Cc1nc(N2CC3C(C2)C3(F)F)ccc1Cc1ncc(C(=O)N[C@@H]2CCc3c2ncn3C)s1 (stereo partly drawn) [Example 188, 2-[(6-{6,6-Difluoro-3-azabicyclo[3.1.0]hexan-3-yl}-2-methylpyridin-3-yl)methyl]-N-[(4R)-1-methyl-1H,4H,5H,6H-cyclopenta[d]imidazol-4-yl]-1,3-thiazole-5-carboxamide]
